Experimental data taken from US12116356B2, “N-heterocyclic five-membered ring-containing capsid protein assembly inhibitor, pharmaceutical composition thereof, and use thereof” (CHIA TAI TIANQING PHARMACEUTICAL GROUP CO., LTD., priority 2018, dated 2024).
Values after ≈ are worked out from the molar mass of the structure shown.

What was measured:
[1] = In vitro cytotoxicity (CCK-8) in HepAD38 cells; type: cell-based; details: human
Protocol: (§1) A bottle of HepG2.2.15 or HepAD38 cells in good exponential growth state was taken, washed once by adding 5 mL PBS, and then thereto was added 3 mL trypsin. The sample was digested in a cell culture incubator, and taken out from time to time and observed under a microscope. When the cells just fell off, 1 mL trypsin was discarded. The residual liquid was placed in a cell culture incubator at 37° C. and digested for 8-15 min. The cells were taken out and observed under a microscope (whether the cells were individually round and there was no adhesion between the cells). 5 mL MEM medium was added for cell resuspension. The cells were then subjected to cell counting with a cell counter, diluted with a complete medium, and adjusted to a cell density of 2*10^5 cells/mL. Then the cells were seeded at 100 μL/well in a 96-well plate with a multi-channel pipette (the 96-well plate was coated with 50 μg/mL Collagen I solution in advance), and cultured in a constant temperature CO2 incubator for 24 h. The cells were treated by drug administration, and fresh medium containing the compound was used to replace the spent medium every 3 days. To control wells was added a drug-free medium containing 0.5% DMSO, and a control well containing a common medium was set up. 6 days after the administration, CCK-8 was added at 10 μL/well. After 1 to 2 hours, the absorbance was detected with microplate reader at 450 nm, and the inhibition rate and the CC50 were calculated.

HBV DNA in HepAD38 cells = assay: In vitro cell HBV DNA inhibitory activity (anti-HBV activity) in HepAD38 cells; type: cell-based; details: Hepatitis B virus, 144 h; anti-HBV activity in HepAD38 cells, 6 days treatment, intracellular capsid HBV DNA by qPCR; read-out: EC50
Protocol: (§2) A bottle of HepG2.2.15 or HepAD38 cells in good exponential growth state was taken, washed once by adding 5 mL PBS, and then thereto was added 3 mL trypsin. After digesting at room temperature for 5 min, 2 mL trypsin was discarded, and then the sample was placed in a cell culture incubator and digested for 10 min. The cells were taken out from time to time and observed under a microscope (whether the cells were individually round and there was no adhesion between the cells). 10 mL complete medium was added to terminate the digestion. After pipetting into a single cell suspension, 10 μL of the cell suspension was taken out for cell counting with a cell counter, and then diluted with a complete medium and adjusted to a cell density of 1*10^5 cells/mL. Then the cell suspension was seeded at 1 mL/well in a 24-well plate with a multi-channel pipette (the 24-well plate was coated with 50 μg/mL Collagen I solution in advance), and cultured in a constant temperature CO2 incubator for 48 h.
(§3) Different compounds dissolved in DMSO were subjected to two-fold gradient dilution (10 concentrations in total) with complete medium. The compound was added, and fresh medium containing the compound was used to replace the spent medium every 72 hours. The cells were treated with the compound for 6 days. After the supernatant was siphoned off, 300 μL lysate (10 mM Tris-HCl, 1 mM EDTA, and 1% NP-40) was added to each well. After lysing at room temperature for 10 min, DNA was extracted, and HBV DNA in the intracellular viral capsid was measured by real-time fluorescence quantitative PCR. The inhibition rate was calculated based on the Ct value, and the EC50 value was calculated by the four-parameter method.

[2] = Solubility in PBS buffer at pH 7.4; type: physicochemical; details: aqueous buffer, PBS buffer pH 7.4, 25° C.
Protocol: […] After standing at 25° C. for 16 hours, the system was centrifugated (12000 rpm, room temperature) for 10 min. 20 μL of the supernatant was taken out, and the reaction was terminated with 400 μL of acetonitrile containing an internal standard (diazepam 20 ng/mL). 30 μL of the supernatant was pipetted, and 150 μL of 50% acetonitrile aqueous solution was added thereto for dilution and mixed uniformly. 0.5 μL of the resulting solution was injected for analysis.

[3] = system: HBV DNA in HepG2.2.15 cells; assay: In vitro cell HBV DNA inhibitory activity (anti-HBV activity) in HepG2.2.15 cells; type: cell-based; details: Hepatitis B virus, 144 h; anti-HBV activity in HepG2.2.15 cells, 6 days treatment, intracellular capsid HBV DNA by qPCR; read-out: EC50
Protocol: as §2, §3

[4] = Stability of human liver microsomes in vitro; type: in vitro ADME
Protocol: (§4) 300 μL of a final incubation system contains 30 μL of liver microsomes (protein concentration: 0.15 mg/mL), 30 μL NADPH+MgCl2, 3 μL substrate (formulated with acetonitrile), and 237 μL PBS buffer. Duplicate incubation systems of 0.3 mL each were formulated for each species. A total volume of 270 μL of a uniformly mixed solution of the substrate and the enzyme was formulated in each tube, the solution and NADPH were pre-incubated at 37° C. for 5 minutes, respectively. Then 30 μL of the mixed solution of NADPH+MgCl2 was added for reaction. 50 μL of the reaction solution was taken out at 0, 10, 30, and 60 mins, and the reaction was terminated with 300 μL of ice acetonitrile containing an internal standard.
(§5) Sample pre-treatment: To 50 μL of the incubated sample was added 300 μL of ice acetonitrile containing diazepam as an internal standard and then precipitated. After vortexing for 5 minutes, the sample was centrifugated (12000 rpm, 4° C.) for 10 minutes. 75 μL of the supernatant was pipetted into a 96-well plate, and then diluted with 75 μL ultrapure water and mixed uniformly. 0.5 μL of the resulting solution was injected and analyzed by LC-MS/MS.

[5] = Stability of rat liver microsomes in vitro; type: in vitro ADME
Protocol: as §4, §5

[6] = In vitro cytotoxicity (CCK-8) in HepG2.2.15 cells; type: cell-based; details: human
Protocol: as §1

[7] = Stability of mouse liver microsomes in vitro; type: in vitro ADME
Protocol: as §4, §5

Cc1c(C(=O)Nc2ccc(F)c(C#N)c2)c(Br)n(C)c1C(=O)C(=O)NC(C)(C)C [Example 15, 2-bromo-5-(2-(tert-butylamino)-2-oxoacetyl)-N-(3-cyano-4-fluorophenyl)-1,4-dimethyl-1H-pyrrole-3-carboxamide]
CC50 at 6 days [1]: > 100000 nM
EC50 (HBV DNA in HepAD38 cells): < 10 nM
solubility at 16 h [2]: 4.9 µM (≈ 2.27 µg/mL)
EC50 [3]: 10 to 50 nM

Cc1c(C(=O)Nc2ccc(F)c(C#N)c2)c(C)n(C)c1C(=O)C(=O)NC(C)(C)CO [Example 8, N-(3-cyano-4-fluorophenyl)-5-(2-((1-hydroxy-2-methylpropan-2-yl)amino)-2-oxoacetyl)-1,2,4-trimethyl-1H-pyrrole-3-carboxamide]
CC50 at 6 days [1]: > 100000 nM
EC50 (HBV DNA in HepAD38 cells): < 10 nM
solubility at 16 h [2]: 80.9 µM (≈ 33.5 µg/mL)
EC50 [3]: < 10 nM
Remaining (%) at 60 min [4]: 70.6%
Remaining (%) at 60 min [5]: 52.0%
CC50 at 6 days [6]: > 100000 nM

Cc1c(C(=O)Nc2ccc(F)c(C#N)c2)c(C)n(C)c1C(=O)C(=O)NC1CCOC1 (stereo not drawn) [Example 7, N-(3-cyano-4-fluorophenyl)-1,2,4-trimethyl-5-(2-oxo-2-((tetrahydrofuran-3-yl)amino)acetyl)-1H-pyrrole-3-carboxamide]
CC50 at 6 days [1]: > 100000 nM
EC50 (HBV DNA in HepAD38 cells): < 10 nM
solubility at 16 h [2]: 19.8 µM (≈ 8.17 µg/mL)
EC50 [3]: 10 to 50 nM
Remaining (%) at 60 min [4]: 83.8%
Remaining (%) at 60 min [5]: 70.5%
CC50 at 6 days [6]: > 100000 nM
Remaining (%) at 60 min [7]: 81.6%

Cc1c(C(=O)Nc2ccc(F)c(C#N)c2)c(Cl)n(C)c1C(=O)C(=O)N[C@@H](C)C(F)(F)F [Example 29, (S)-2-chloro-N-(3-cyano-4-fluorophenyl)-1,4-dimethyl-5-(2-oxo-2-((1,1,1-trifluoroprop-2-yl)amino)acetyl)-1H-pyrrole-3-carboxamide]
CC50 at 6 days [1]: > 100000 nM
EC50 (HBV DNA in HepAD38 cells): < 10 nM
EC50 [3]: 10 to 50 nM
Remaining (%) at 60 min [4]: 99.6%
Remaining (%) at 60 min [5]: 88.7%
CC50 at 6 days [6]: > 100000 nM
Remaining (%) at 60 min [7]: 99.2%

Cc1c(C(=O)Nc2ccc(F)c(C#N)c2)c(C)n(C)c1C(=O)C(=O)NC12CC(C1)C2 [Example 2, 5-(2-(Bicyclo[1.1.1]pentan-1-ylamino)-2-oxoacetyl)-N-(3-cyano-4-fluorophenyl)-1,2,4-trimethyl-1H-pyrrole-3-carboxamide]
CC50 at 6 days [1]: > 100000 nM
EC50 (HBV DNA in HepAD38 cells): < 10 nM
solubility at 16 h [2]: 22.1 µM (≈ 9.03 µg/mL)
EC50 [3]: < 10 nM

COC(=O)C(C)(C)NC(=O)C(=O)c1c(C)c(C(=O)Nc2ccc(F)c(C#N)c2)c(C)n1C [Example 9, methyl (2-(4-((3-cyano-4-fluorophenyl)carbamoyl)-1,3,5-trimethyl-1H-pyrrole-2-yl)-2-oxoacetylamino)-2-methylpropionate]
CC50 at 6 days [1]: > 100000 nM
EC50 (HBV DNA in HepAD38 cells): < 10 nM
solubility at 16 h [2]: 9.6 µM (≈ 4.25 µg/mL)
EC50 [3]: 10 to 50 nM
CC50 at 6 days [6]: > 100000 nM

Cc1c(C(=O)Nc2ccc(F)c(C#N)c2)c(Cl)n(C)c1C(=O)C(=O)NC(C)(C)C [Example 17, 5-(2-(tert-butylamino)-2-oxoacetyl)-2-chloro-N-(3-cyano-4-fluorophenyl)-1,4-dimethyl-1H-pyrrole-3-carboxamide]
CC50 at 6 days [1]: > 100000 nM
EC50 [3]: 10 to 50 nM
Remaining (%) at 60 min [5]: 44.9%
CC50 at 6 days [6]: > 100000 nM
Remaining (%) at 60 min [7]: 47.4%

Cc1c(C(=O)Nc2ccc(F)c(N)c2)c(C)n(C)c1C(=O)C(=O)N[C@@H](C)C(F)(F)F [Example 42, (S)—N-(3-amino-4-fluorophenyl)-1,2,4-trimethyl-5-(2-oxo-2-((1,1,1-trifluoroprop-2-yl)amino)acetyl)-1H-pyrrole-3-carboxamide]
EC50 (HBV DNA in HepAD38 cells): 10 to 50 nM
EC50 [3]: < 10 nM
Remaining (%) at 60 min [4]: 102%
Remaining (%) at 60 min [5]: 85.3%
CC50 at 6 days [6]: > 100000 nM
Remaining (%) at 60 min [7]: 61.9%

Cc1c(C(=O)Nc2ccc(F)c(C#N)c2)c(C)n(C)c1C(=O)C(=O)NC1(C)CS(=O)(=O)C1 [Example 45, N-(3-cyano-4-fluorophenyl)-1,2,4-trimethyl-5-(2-((3-methyl-1,1-dioxidothietan-3-yl)amino)-2-oxoacetyl)-1H-pyrrole-3-carboxamide]
EC50 (HBV DNA in HepAD38 cells): 10 to 50 nM
EC50 [3]: < 10 nM
Remaining (%) at 60 min [4]: 73%
Remaining (%) at 60 min [5]: 47%

C#CCNC(=O)C(=O)c1c(C)c(C(=O)Nc2ccc(F)c(C#N)c2)c(C)n1C [Example 1, N-(3-cyano-4-fluorophenyl)-1,2,4-trimethyl-5-(2-oxo-2-(prop-2-yn-1-ylamino)acetyl)-1H-pyrrole-3-carboxamide]
CC50 at 6 days [1]: > 100000 nM
EC50 (HBV DNA in HepAD38 cells): 10 to 50 nM
EC50 [3]: 10 to 50 nM
Remaining (%) at 60 min [4]: 69%
Remaining (%) at 60 min [5]: 44%
CC50 at 6 days [6]: > 100000 nM

Cc1c(C(=O)Nc2ccc(F)c(C#N)c2)c(C)n(C)c1C(=O)C(=O)N[C@H](C)C(F)(F)F [Example 11]
CC50 at 6 days [1]: > 100000 nM
EC50 (HBV DNA in HepAD38 cells): < 10 nM
solubility at 16 h [2]: 7.5 µM (≈ 3.29 µg/mL)
EC50 [3]: < 10 nM
Remaining (%) at 60 min [5]: 56.8%
CC50 at 6 days [6]: > 100000 nM
Remaining (%) at 60 min [7]: 47.7%

Cc1c(C(=O)Nc2ccc(F)c(C#N)c2)c(C)n(C)c1C(=O)C(=O)N[C@@H]1CCOC1 [Example 21]
CC50 at 6 days [1]: > 100000 nM
EC50 (HBV DNA in HepAD38 cells): 10 to 50 nM
EC50 [3]: 50 to 100 nM
CC50 at 6 days [6]: > 100000 nM

Cc1c(C(=O)Nc2ccc(F)c(C#N)c2)c(C)n(C)c1C(=O)C(=O)NC1(C)CCOCC1 [Example 24, N-(3-cyano-4-fluorophenyl)-1,2,4-trimethyl-5-(2-((4-methyltetrahydro-2H-pyran-4-yl)amino)-2-oxoacetyl)-1H-pyrrole-3-carboxamide]
CC50 at 6 days [1]: > 100000 nM
EC50 (HBV DNA in HepAD38 cells): < 10 nM
EC50 [3]: < 10 nM
CC50 at 6 days [6]: > 100000 nM

Cc1c(C(=O)Nc2ccc(F)c(C#N)c2)c(C)n(C)c1C(=O)C(=O)NC1(CO)COC1 [Example 26]
CC50 at 6 days [1]: > 100000 nM
EC50 (HBV DNA in HepAD38 cells): 50 to 100 nM
EC50 [3]: 50 to 100 nM
CC50 at 6 days [6]: > 100000 nM

Cc1c(C(=O)Nc2ccc(F)c(C#N)c2)c(C)n(C)c1C(=O)C(=O)NC1(CO)CC1 [Example 27, N-(3-cyano-4-fluorophenyl)-5-(2-((1-(hydroxymethyl)cyclopropyl)amino)-2-oxoacetyl)-1,2,4-trimethyl-1H-pyrrole-3-carboxamide]
CC50 at 6 days [1]: > 100000 nM
EC50 (HBV DNA in HepAD38 cells): 10 to 50 nM
EC50 [3]: 10 to 50 nM
CC50 at 6 days [6]: > 100000 nM

Cc1c(C(=O)Nc2ccc(F)c(C#N)c2)c(C)n(C)c1C(=O)C(=O)NC1(C)COC1 [Example 6, N-(3-cyano-4-fluorophenyl)-1,2,4-trimethyl-5-(2-(3-methyloxetan-3-ylamino)-2-oxoacetyl)-1H-pyrrole-3-carboxamide]
CC50 at 6 days [1]: > 100000 nM
EC50 (HBV DNA in HepAD38 cells): 10 to 50 nM
solubility at 16 h [2]: 81.8 µM (≈ 33.7 µg/mL)
EC50 [3]: 10 to 50 nM
Remaining (%) at 60 min [4]: 79.1%
Remaining (%) at 60 min [5]: 74.9%
CC50 at 6 days [6]: > 100000 nM
Remaining (%) at 60 min [7]: 55%
